The conditions of series [1]: for Desethyl-CNS: as obtained.
The conditions of series [2]: cited from earlier work.
The mark [3] stands for this setting: Table 3, after 2 weeks at 55° C.
[4] abbreviates: after maintaining for 2 weeks (oven at 55° C.).

Several values for one entry are separate records, joined by “and”; a condition that tells them apart may be missing. Equal entries are not always repeated. Where two headings read alike, the source gives them in different places.

As to `CCOc1nc2cccc(C(=O)OC(C)OC(=O)OC3CCCCC3)c2n1Cc1ccc(-c2ccccc2-c2nnn[nH]2)cc1` (racemic) [Candesartan cilexetil, (±)-1-[[(cyclohexyloxy)carbonyl]oxy]ethyl-2-ethoxy-1-[[2′-(1H-tetrazol-5-yl)[1,1 ′biphenyl]-4-yl]methyl]-1H-benzimidazole-7-carboxylate], the CNS-desethyl is listed as 0.07 w/w % in series [1] (time of slurry 2 hr, 2 weeks); 0.03 w/w % in series [1] (time of slurry 2 hr, T = 0); 0.03 w/w % in series [1] (time of slurry 20 hr, 2 weeks); “LTDL (LTDL means less than detection limit)” in series [1] (time of slurry 20 hr, T = 0). In series [2] (methanol), the solubility in methanol result is on record as “sparingly soluble”. Also, the solubility in water entry in series [2] (water) is “sparingly soluble”.
For `CCOc1nc2cccc(C(=O)OC(C)OC(=O)OC3CCCCC3)c2n1Cc1ccc(-c2ccccc2-c2nnn[nH]2)cc1` (centres unmarked) [Fine particle size, candesartan cilexetil], in series [1] (2 weeks, HPLC), the “2-N-ethyl CNS” value was 0.09 w/w % and 0.29 w/w %. In addition, the CNS desethyl in series [1] (2 weeks, HPLC) is 0.14 w/w % and 0.41 w/w %; in series [1] (T = 0, HPLC) it was 0.04 w/w % and 0.24 w/w %.
Turning to `CCOc1nc2cccc(C(=O)OC(C)OC(=O)OC3CCCCC3)c2n1Cc1ccc(-c2ccccc2-c2nnn[nH]2)cc1` (centres unmarked) [Product B, candesartan cilexetil], in series [1] (setting [3]), the “1-N-ethyl CNS” value was “LTDL (LTDL means less than detection limit)”, the “2-N-ethyl CNS” value is 0.03 w/w % and the CNS desethyl is on record as 0.05 w/w %.
Take `CCOc1nc2cccc(C(=O)OC(C)OC(=O)OC3CCCCC3)c2n1Cc1ccc(-c2ccccc2-c2nnn[nH]2)cc1` (centres unmarked) [Product, candesartan cilexetil]: in series [1] (Table 3, before storage), the “1-N-ethyl CNS” value was “LTDL (LTDL means less than detection limit)”, the “2-N-ethyl CNS” value worked out at 0.03 w/w % and the CNS desethyl was determined as 0.05 w/w %. For the same compound, the “level of desethyl-CNS” value in series [1] (before storage) is given as 0.05 % w/w by HPLC.
Regarding `CCOc1nc2cccc(C(=O)OC(C)OC(=O)OC3CCCCC3)c2n1Cc1ccc(-c2ccccc2-c2nnn[nH]2)cc1` (centres unmarked) [Sample 1, candesartan cilexetil], in series [1] (Table 3, before storage), the “1-N-ethyl CNS” value is on record as “LTDL (LTDL means less than detection limit)”, the “2-N-ethyl CNS” value is given as “LTDL (LTDL means less than detection limit)” and the CNS desethyl worked out at 0.04 w/w %.
In the case of `CCOc1nc2cccc(C(=O)OC(C)OC(=O)OC3CCCCC3)c2n1Cc1ccc(-c2ccccc2-c2nnn[nH]2)cc1` (centres unmarked) [Sample 1B, candesartan cilexetil], in series [1] (setting [3]), the “1-N-ethyl CNS” value was found to be 0.04 w/w %, the “2-N-ethyl CNS” value worked out at 0.15 w/w % and the CNS desethyl worked out at 0.20 w/w %.
With `CCOc1nc2cccc(C(=O)OC(C)OC(=O)OC3CCCCC3)c2n1Cc1ccc(-c2ccccc2-c2nnn[nH]2)cc1` (centres unmarked) [Slurried fine particle size sample, candesartan cilexetil], the CNS desethyl is 0.10 w/w % and 0.06 w/w % in series [1] (2 weeks, HPLC); 0.08 w/w % and 0.03 w/w % in series [1] (T = 0, HPLC).
As for `CCOc1nc2cccc(C(=O)OC(C)OC(=O)OC3CCCCC3)c2n1Cc1ccc(-c2ccccc2-c2nnn[nH]2)cc1` (centres unmarked) [candesartan cilexetil Form I, candesartan cilexetil], the “level of desethyl-CNS” value in series [1] (setting [4]) worked out at 0.07 % w/w by HPLC. The Desethyl-CNS in series [1] (before storage) is given as 0.03 % by area HPLC.
Consider `CCOc1nc2cccc(C(=O)OC(C)OC(=O)OC3CCCCC3)c2n1Cc1ccc(-c2ccccc2-c2nnn[nH]2)cc1` (centres unmarked) [candesartan cilexetil], for which the CNS-desethyl turned out to be 0.10 w/w % in series [1] (fine particle size, time of slurry 3 hr, 2 weeks); 0.07 w/w % in series [1] (fine particle size, time of slurry 3 hr, T = 0); 0.07 w/w % in series [1] (fine particle size, time of slurry 6 hr, 2 weeks); 0.06 w/w % in series [1] (fine particle size, time of slurry 6 hr, T = 0); 0.06 w/w % in series [1] (fine particle size, time of slurry 9 hr, 2 weeks); 0.05 w/w % in series [1] (fine particle size, time of slurry 9 hr, T = 0). Moreover, the CNS-desethyl in series [1] (fine particle size, time of slurry 13 hr, 2 weeks) was found to be 0.06 w/w %; in series [1] (fine particle size, time of slurry 13 hr, T = 0), 0.05 w/w %; in series [1] (fine particle size, time of slurry 23 hr, 2 weeks), 0.05 w/w %; in series [1] (fine particle size, time of slurry 23 hr, T = 0), 0.04 w/w %.
On to `CCOc1nc2cccc(C(=O)OC(C)OC(=O)OC3CCCCC3)c2n1Cc1ccc(-c2ccccc2-c2nnn[nH]2)cc1` (centres unmarked) [micronized CNS-Cryst, candesartan cilexetil], for which the “level of desethyl-CNS” value in series [1] (setting [4]) was 0.41 % w/w by HPLC; in series [1] (before storage), 0.24 % w/w by HPLC.
For `CCOc1nc2cccc(C(=O)OC(C)OC(=O)OC3CCCCC3)c2n1Cc1ccc(-c2ccccc2-c2nnn[nH]2)cc1` (centres unmarked) [micronized material, candesartan cilexetil], the “level of desethyl-CNS” value came to 0.14 % w/w by HPLC in series [1] (setting [4]) and 0.04 % w/w by HPLC in series [1] (before storage).
With `CCOc1nc2cccc(C(=O)OC(C)OC(=O)OC3CCCCC3)c2n1Cc1ccc(-c2ccccc2-c2nnn[nH]2)cc1` (centres unmarked) [stable candesartan cilexetil Form I, candesartan cilexetil], the “level of desethyl-CNS” value in series [1] (after maintaining for 2 weeks (oven at 55° C.), listed as obtained product) is 0.10 % w/w by HPLC. In series [1] (before storage), this compound showed a Desethyl-CNS of 0.08%.
In series [1] (after maintaining for 2 weeks), `CCOc1nc2cccc(C(=O)OC(C)OC(=O)OC3CCCCC3)c2n1Cc1ccc(-c2ccccc2-c2nnn[nH]2)cc1` (centres unmarked) [stable micronized candesartan Form I, candesartan cilexetil] displayed a desethyl-CNS level of 0.06 % area by HPLC. In series [1] (before storage), the “level of desethyl-CNS” value came to 0.03 % w/w by HPLC.
